The numbers were not newly measured in patent publication US6365180B1, “Oral liquid compositions” (priority 1998, dated 2002), which cites them from elsewhere.

The conditions of this data set: enteric coated tablet versus aqueous solution.

With `O=C(O)Cc1ccccc1Nc1c(Cl)cccc1Cl` [sodium diclofenac], the oral bioavailability entry is on record as “more orally bioavailable from an enteric coated tablet than from an aqueous solution”.
